From paper PMC10511702, “Design, molecular modelling and synthesis of novel benzothiazole derivatives as BCL-2 inhibitors” (Scientific Reports, 2023)

How the values were obtained:
recombinant BCL-2 = target: T1, recombinant BCL-2 (Homo sapiens, UniProt P10415); assay: In vitro BCL-2 inhibitory activity, TR-FRET assay (BPS Bioscience); assay type: binding; conditions: for inhibition at 10 µM / BCL-2 inhibition %: single dose of 10 µM; for IC50: 5 concentrations 1 nM-10 µM
T1 construct: purchased BPS Bioscience 50272
T1 sequence (P10415 whole entry): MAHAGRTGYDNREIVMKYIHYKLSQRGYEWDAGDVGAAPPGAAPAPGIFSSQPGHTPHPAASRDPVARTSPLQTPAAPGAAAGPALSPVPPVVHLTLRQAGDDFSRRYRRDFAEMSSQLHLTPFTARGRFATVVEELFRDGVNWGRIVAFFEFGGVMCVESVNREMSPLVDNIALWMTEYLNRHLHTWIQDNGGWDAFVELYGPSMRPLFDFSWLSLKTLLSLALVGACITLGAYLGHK
Protocol: The in vitro enzyme inhibition determination for the synthesized compounds was carried out in BPS Bioscience Corporation, San Diego, CA, USA (www.bpsbioscience.com). […] The assay was performed by TR-FRET technology using a recombinant BCL-2 and a peptide- ligand substrate. The TR-FRET signal from the assay is correlated with the amount of Ligand binding to BCL-2. […] All of the binding reactions were conducted at room temperature. […] The reaction mixture incubated for 180 min prior to reading the TR-FRET signal. For the background, ligand was replaced with assay buffer. Fluorescence signals for both the donor and acceptor dyes were measured using a Tecan Infinite M1000 plate reader. TR-FRET was recorded as the ratio of the fluorescence of the acceptor and the donor dyes (acceptor/donor). Binding experiments were performed in duplicate at each concentration. The TR-FRET data were analyzed using the computer software, Graphpad Prism. In the absence of the compound in wells containing BCL-2 ligand, the TR-FRET signal (Ft) in each data set was defined as 100% activity. In wells without peptide ligand, the TR-FRET signal (Fb) in each data set was defined as 0% activity. The percent activity in the presence of each compound was calculated according to the following equation: % activity = [(F − Fb)/ (Ft − Fb)] × 100, where F = the TR-FRET signal in the presence of the compound. The percent inhibition was calculated according to the following equation: % inhibition = 100—% activity. IC50 determination for target compounds against BCL-2 was calculated. […] The IC50 value was determined by the concentration causing a half-maximal percent activity.

O=C(c1ccc2nc(NS(=O)(=O)c3ccc4ccccc4c3)sc2c1)N1CCN(c2ccccc2)CC1 [7a, N-(6-(4-Phenylpiperazine-1-carbonyl)benzo[d]thiazol-2-yl)naphthalene-2-sulfonamide]
inhibition at 10 µM (recombinant BCL-2): 0%

O=C(c1ccc2nc(NS(=O)(=O)c3ccc4ccccc4c3)sc2c1)N1CCN(c2ccccc2F)CC1 [7b, N-(6-(4-(2-Fluorophenyl)piperazine-1-carbonyl)benzo[d]thiazol-2-yl)naphthalene-2-sulfonamide]
melting point: 290 to 292 °C
inhibition at 10 µM (recombinant BCL-2): 0%

COc1ccccc1N1CCN(C(=O)c2ccc3nc(NS(=O)(=O)c4ccc5ccccc5c4)sc3c2)CC1 [7c, N-(6-(4-(2-Methoxyphenyl)piperazine-1-carbonyl)benzo[d]thiazol-2-yl)naphthalene-2-sulfonamide]
melting point: 258 to 260 °C
inhibition at 10 µM (recombinant BCL-2): 2%

O=C(c1ccc2nc(NS(=O)(=O)c3ccc4ccccc4c3)sc2c1)N1CCN(C(c2ccccc2)c2ccccc2)CC1 [7f, N-(6-(4-Benzhydrylpiperazine-1-carbonyl)benzo[d]thiazol-2-yl)naphthalene-2-sulfonamide]
melting point: 200 to 202 °C
inhibition at 10 µM (recombinant BCL-2): 7%

O=C(c1ccc2nc(NS(=O)(=O)c3ccc4ccccc4c3)sc2c1)N1CCN(C/C=C/c2ccccc2)CC1 [7g, (E)-N-(6-(4-Cinnamylpiperazine-1-carbonyl)benzo[d]thiazol-2-yl)naphthalene-2-sulfonamide]
melting point: 240 to 242 °C
inhibition at 10 µM (recombinant BCL-2): 7%

O=C(c1ccc2nc(NS(=O)(=O)c3ccc4ccccc4c3)sc2c1)N1CCN(Cc2ccc3c(c2)OCO3)CC1 [7h, N-(6-(4-(Benzo[d]dioxol-5-ylmethyl)piperazine-1-carbonyl)benzo[d]thiazol-2-yl)naphthalene-2-sulfonamide]
melting point: 178 to 180 °C
inhibition at 10 µM (recombinant BCL-2): 1%

O=C(c1ccc2nc(NS(=O)(=O)c3ccc4ccccc4c3)sc2c1)N1CCN(C(=O)C2CCCO2)CC1 (stereo not drawn) [7i, N-(6-(4-(Tetrahydrofuran-2-carbonyl)piperazine-1-carbonyl)benzo[d]thiazol-2-yl)naphthalene-2-sulfonamide]
melting point: 230 to 232 °C
inhibition at 10 µM (recombinant BCL-2): 4%

O=C(Nc1ccc(OCc2cccc(F)c2)cc1)c1ccc2nc(NS(=O)(=O)c3ccc4ccccc4c3)sc2c1 [8a, N-(4-((3-Fluorobenzyl)oxy)phenyl)-2-(naphthalene-2-sulfonamido)-benzo[d]thiazole-6-carboxamide]
melting point: 146 to 148 °C
inhibition at 10 µM (recombinant BCL-2): 41%

O=C(Nc1ccc(OCc2cccc(Cl)c2)cc1)c1ccc2nc(NS(=O)(=O)c3ccc4ccccc4c3)sc2c1 [8b, N-(4-((3-Chlorobenzyl)oxy)phenyl)-2-(naphthalene-2-sulfonamido)benzo[d]thiazole-6-carboxamide]
melting point: 198 to 200 °C
inhibition at 10 µM (recombinant BCL-2): 16%

O=C(Nc1ccc(OCc2ccc(Cl)cc2)cc1)c1ccc2nc(NS(=O)(=O)c3ccc4ccccc4c3)sc2c1 [8c, N-(4-((4-Chlorobenzyl)oxy)phenyl)-2-(naphthalene-2-sulfonamido)benzo[d]thiazole-6-carboxamide]
melting point: 296 to 298 °C
inhibition at 10 µM (recombinant BCL-2): 48%

O=C(Nc1ccc(OCc2ccc(Br)cc2)cc1)c1ccc2nc(NS(=O)(=O)c3ccc4ccccc4c3)sc2c1 [8d, N-(4-((4-Bromobenzyl)oxy)phenyl)-2-(naphthalene-2-sulfonamido)benzo[d]thiazole-6-carboxamide]
melting point: ≥ 300 °C
IC50 (recombinant BCL-2): 1.62 µM
inhibition at 10 µM (recombinant BCL-2): > 60%

Cc1ccc(COc2ccc(NC(=O)c3ccc4nc(NS(=O)(=O)c5ccc6ccccc6c5)sc4c3)cc2)cc1 [8e, N-(4-((4-Methylbenzyl)oxy)phenyl)-2-(naphthalene-2-sulfonamido)benzo[d]thiazole-6-carboxamide]
melting point: ≥ 300 °C
inhibition at 10 µM (recombinant BCL-2): 13%

O=C(Nc1ccc(OCc2ccc(C(F)(F)F)cc2)cc1)c1ccc2nc(NS(=O)(=O)c3ccc4ccccc4c3)sc2c1 [8f, N-(4-((4-Trifluormethylbenzyl)oxy)phenyl)-2-(naphthalene-2-sulfonamido)benzo-[d]thiazole-6-carboxamide]
melting point: ≥ 300 °C
inhibition at 10 µM (recombinant BCL-2): 14%

O=C(Nc1ccc(Oc2ccc(Cl)c(F)c2)cc1)c1ccc2nc(NS(=O)(=O)c3ccc4ccccc4c3)sc2c1 [9a, N-(4-(4-Chloro-3-fluorophenoxy)phenyl)-2-(naphthalene-2-sulfonamido)benzo[d]thiazole-6-carboxamide]
melting point: 294 to 296 °C
inhibition at 10 µM (recombinant BCL-2): 9%

O=C(Nc1ccc(Oc2ccc(Br)cc2)cc1)c1ccc2nc(NS(=O)(=O)c3ccc4ccccc4c3)sc2c1 [9b, N-(4-(4-Bromophenoxy)phenyl)-2-(naphthalene-2-sulfonamido)benzo[d]thiazole-6-carboxamide]
melting point: 280 to 282 °C
inhibition at 10 µM (recombinant BCL-2): 9%

COc1ccccc1N1CCN(C(=O)c2ccc3nc(NC(=O)c4ccc(NCCc5ccccc5)c([N+](=O)[O-])c4)sc3c2)CC1 [12a, N-(6-(4-(2-Methoxyphenyl)piperazine-1-carbonyl)benzo[d]thiazol-2-yl)-3-nitro-4-(phenethylamino)benzamide]
melting point: 184 to 186 °C
inhibition at 10 µM (recombinant BCL-2): 15%

O=C(Nc1nc2ccc(C(=O)N3CCN(c4ccc(Cl)c(Cl)c4)CC3)cc2s1)c1ccc(NCCc2ccccc2)c([N+](=O)[O-])c1 [12b, N-(6-(4-(3,4-Dichlorophenyl)piperazine-1-carbonyl)benzo[d]thiazol-2-yl)-3-nitro-4-(phenethylamino)benzamide]
melting point: 176 to 178 °C
inhibition at 10 µM (recombinant BCL-2): 18%

O=C(Nc1nc2ccc(C(=O)N3CCN(C(c4ccccc4)c4ccccc4)CC3)cc2s1)c1ccc(NCCc2ccccc2)c([N+](=O)[O-])c1 [12c, N-(6-(4-Benzhydrylpiperazine-1-carbonyl)benzo[d]thiazol-2-yl)-3-nitro-(phenethylamino)-benzamide]
melting point: 170 to 172 °C
inhibition at 10 µM (recombinant BCL-2): 18%

O=C(Nc1nc2ccc(C(=O)N3CCN(C/C=C/c4ccccc4)CC3)cc2s1)c1ccc(NCCc2ccccc2)c([N+](=O)[O-])c1 [12d, (E)-N-(6-(4-Cinnamylpiperazine-1-carbonyl)benzo[d]thiazol-2-yl)-3-nitro-4-(phenethyl-amino)benzamide]
melting point: 244 to 246 °C
inhibition at 10 µM (recombinant BCL-2): 14%

O=C(Nc1nc2ccc(C(=O)N3CCN(C(=O)C4CCCO4)CC3)cc2s1)c1ccc(NCCc2ccccc2)c([N+](=O)[O-])c1 (stereo not drawn) [12e, 3-Nitro-4-(phenethylamino)-N-(6-(4-(tetrahydrofuran-2-carbonyl)piperazine-1-carbonyl)-benzo[d]thiazol-2-yl)benzamide]
melting point: 134 to 136 °C
inhibition at 10 µM (recombinant BCL-2): 8%

O=C(Nc1ccc(OCc2cccc(Cl)c2)cc1)c1ccc2nc(NC(=O)c3ccc(NCCc4ccccc4)c([N+](=O)[O-])c3)sc2c1 [13a, N-(4-((3-Chlorobenzyl)oxy)phenyl)-2-(3-nitro-4-(phenethylamino)benzamido) benzo[d]thiazole-6-carboxamide]
melting point: 260 to 262 °C
inhibition at 10 µM (recombinant BCL-2): 35%

O=C(Nc1ccc(OCc2ccc(Br)cc2)cc1)c1ccc2nc(NC(=O)c3ccc(NCCc4ccccc4)c([N+](=O)[O-])c3)sc2c1 [13b, N-(4-((4-Bromobenzyl)oxy)phenyl)-2-(3-nitro-4-(phenethylamino)benzamido)-benzo[d]thiazole-6-carboxamide]
melting point: 260 to 262 °C
IC50 (recombinant BCL-2): 1.09 µM
inhibition at 10 µM (recombinant BCL-2): > 60%

O=C(Nc1ccc(Oc2ccc(Cl)c(F)c2)cc1)c1ccc2nc(NC(=O)c3ccc(NCCc4ccccc4)c([N+](=O)[O-])c3)sc2c1 [14a, N-(4-(4-Chloro-3-fluorophenoxy)phenyl)-2-(3-nitro-4-(phenethylamino)benzamido)-benzo[d]thiazole-6-carboxamide]
melting point: 196 to 198 °C
inhibition at 10 µM (recombinant BCL-2): 20%

O=C(Nc1ccc(Oc2ccc(Br)cc2)cc1)c1ccc2nc(NC(=O)c3ccc(NCCc4ccccc4)c([N+](=O)[O-])c3)sc2c1 [14b]
melting point: 212 to 214 °C
inhibition at 10 µM (recombinant BCL-2): 47%

O=C(Nc1ccccc1)Nc1ccc2nc(NS(=O)(=O)c3ccc4ccccc4c3)sc2c1 [17a, N-(6-(3-Phenylureido)benzo[d]thiazol-2-yl)naphthalene-2-sulfonamide]
melting point: ≥ 300 °C
inhibition at 10 µM (recombinant BCL-2): 0%

CC1(C)CCC(CN2CCN(c3ccc(C(=O)NS(=O)(=O)c4ccc(NCC5CCOCC5)c([N+](=O)[O-])c4)c(Oc4cnc5[nH]ccc5c4)c3)CC2)=C(c2ccc(Cl)cc2)C1 [ABT-199 (20), reference compound]
inhibition at 0.1 µM (recombinant BCL-2; at 100 nM): 92%

N-(6-(4-(3,4-Dichlorophenyl)piperazine-1-carbonyl)benzo[d]thiazol-2-yl)naphthalene-2-sulfonamide [7e]
BCL-2 inhibition % (recombinant BCL-2): 0%

N-(6-(4-(4-Chlorophenyl)piperazine-1-carbonyl)benzo[d]thiazol-2-yl)naphthalene-2-sulfonamide [7d]
BCL-2 inhibition % (recombinant BCL-2): 8%
